Measurements from ChEMBL document CHEMBL5512632, “Unlocking the potential of 1,4-naphthoquinones: A comprehensive review of their anticancer properties” (Eur J Med Chem, 2024).
One block for each molecule: values may come before it.

Legend:
[1] = system: MCF7; experiment: Antiproliferative activity against human MCF7 cells; format: functional, cell-based
[2] = system: NCI-H187; experiment: Antiproliferative activity against human NCI-H187 cells; format: functional, cell-based
[3] = Antiproliferative activity against human NCI-H322T cells assessed as inhibition of cell growth incubated for 48 hrs by MTT assay; format: functional, cell-based
[4] = system: A549; experiment: Antiproliferative activity against human A549 cells assessed as inhibition of cell growth incubated for 48 hrs by MTT assay; format: functional, cell-based; details: A549, 48 h
[5] = system: HL-60; experiment: Antiproliferative activity against human HL-60 cells assessed as inhibition of cell growth incubated for 72 hrs by MTT reagent based spectral analysis; format: functional; details: HL-60, 72 h
[6] = system: MCF7; experiment: Antiproliferative activity against human MCF7 cells assessed as inhibition of cell growth incubated for 24 hrs by MTT assay; format: functional, cell-based; details: MCF7, 24 h
[7] = system: HCT-15; experiment: Antiproliferative activity against human HCT-15 cells assessed as inhibition of cell growth incubated for 24 hrs by MTT assay; format: functional, cell-based; details: HCT-15, 24 h
[8] = system: KB; experiment: Antiproliferative activity against human KB cells assessed as inhibition of cell growth incubated for 72 hrs by MTT assay; format: functional, cell-based
[9] = system: HepG2; experiment: Antiproliferative activity against human HepG2 cells assessed as inhibition of cell growth incubated for 72 hrs by MTT assay; format: functional, cell-based; details: HepG2, 72 h
[10] = system: MCF7; experiment: Antiproliferative activity against human MCF7 cells assessed as inhibition of cell growth incubated for 72 hrs by MTT assay; format: functional, cell-based; details: MCF7, 72 h
[11] = system: MDA-MB-231; experiment: Antiproliferative activity against human MDA-MB-231 cells assessed as inhibition of cell growth incubated for 72 hrs by trypan blue exclusion assay; format: functional, cell-based; details: MDA-MB-231, 72 h
[12] = system: J774.2; experiment: Antiproliferative activity against mouse J774.2 cells assessed as inhibition of cell growth incubated for 72 hrs by MTT assay; format: functional, cell-based; details: J774.2, 72 h
[13] = Antiproliferative activity against human KB-ChR-8-5-11 cells assessed as inhibition of cell growth incubated for 72 hrs by MTT assay; format: functional, cell-based; details: KB-ChR-8-5-11, 72 h
[14] = system: Jurkat; experiment: Antiproliferative activity against human Jurkat cells assessed as inhibition of cell growth incubated for 72 hrs by MTT assay; format: functional, cell-based
[15] = system: THP-1; experiment: Antiproliferative activity against human THP-1 cells assessed as inhibition of cell growth incubated for 72 hrs by MTT assay; format: functional, cell-based; details: THP-1, 72 h
[16] = system: HCT-116; experiment: Antiproliferative activity against human HCT-116 cells assessed as inhibition of cell growth incubated for 72 hrs by MTT assay; format: functional, cell-based; details: HCT-116, 72 h
[17] = system: HCT-15; experiment: Cytotoxicity against human HCT-15 cells incubated for 48 hrs by MTT assay; format: functional, cell-based; details: HCT-15, 48 h
[18] = system: MDA-MB-231; experiment: Cytotoxicity against human MDA-MB-231 cells incubated for 48 hrs by MTT assay; format: functional, cell-based; details: MDA-MB-231, 48 h
[19] = system: Bel-7402; experiment: Cytotoxicity against human Bel-7402 cells incubated for 48 hrs by MTT assay; format: functional, cell-based; details: Bel-7402, 48 h
[20] = system: HCT-116; experiment: Cytotoxicity against human HCT-116 cells incubated for 48 hrs by MTT assay; format: functional, cell-based; details: HCT-116, 48 h
[21] = system: T-24; experiment: Cytotoxicity against human T24 cells assessed as reduction in cell growth incubated for 48 hrs by MTT assay; format: functional, cell-based; details: T-24, 48 h
[22] = system: DU-145; experiment: Cytotoxicity against human DU-145 cells assessed as reduction in cell growth incubated for 48 hrs by MTT assay; format: functional, cell-based; details: DU-145, 48 h
[23] = system: MCF7; experiment: Cytotoxicity against human MCF7 cells assessed as reduction in cell growth incubated for 48 hrs by MTT assay; format: functional, cell-based; details: MCF7, 48 h
[24] = system: SF-295; experiment: Antiproliferative activity against human SF-295 cells assessed as inhibition of cell growth incubated for 72 hrs by MTT assay; format: functional, cell-based; details: SF-295, 72 h
[25] = system: MDA-MB-435; experiment: Antiproliferative activity against human MDA-MB-435 cells assessed as inhibition of cell growth incubated for 72 hrs by MTT assay; format: functional, cell-based; details: MDA-MB-435, 72 h
[26] = system: OVCAR-8; experiment: Antiproliferative activity against human OVCAR-8 cells assessed as inhibition of cell growth incubated for 72 hrs by MTT assay; format: functional, cell-based; details: OVCAR-8, 72 h
[27] = system: HCT-8; experiment: Antiproliferative activity against human HCT-8 cells assessed as inhibition of cell growth incubated for 72 hrs by MTT assay; format: functional, cell-based; details: HCT-8, 72 h
[28] = system: HL-60; experiment: Antiproliferative activity against human HL-60 cells assessed as inhibition of cell growth incubated for 72 hrs by MTT assay; format: functional, cell-based; details: HL-60, 72 h
[29] = Antiproliferative activity against human NCI-H358M cells assessed as inhibition of cell growth incubated for 72 hrs by MTT assay; format: functional, cell-based
[30] = system: PC-3M; experiment: Antiproliferative activity against human PC-3M cells assessed as inhibition of cell growth incubated for 72 hrs by MTT assay; format: functional, cell-based
[31] = system: AGS; experiment: Antiproliferative activity against human AGS cells assessed as inhibition of cell growth incubated for 24 hrs by MTT reagent based microplate reader assay; format: functional
[32] = system: MKN-28; experiment: Antiproliferative activity against human MKN-28 cells assessed as inhibition of cell growth incubated for 24 hrs by MTT reagent based microplate reader assay; format: functional; details: MKN-28, 24 h
[33] = system: MKN-45; experiment: Antiproliferative activity against human MKN-45 cells assessed as inhibition of cell growth incubated for 24 hrs by MTT reagent based microplate reader assay; format: functional; details: MKN-45, 24 h
[34] = Antiproliferative activity against human SNU-216 cells assessed as inhibition of cell growth incubated for 24 hrs by MTT reagent based microplate reader assay; format: functional; details: SNU-216, 24 h
[35] = Antiproliferative activity against human SNU-484 cells assessed as inhibition of cell growth incubated for 24 hrs by MTT reagent based microplate reader assay; format: functional; details: SNU-484, 24 h
[36] = system: NCI-N87; experiment: Antiproliferative activity against human NCI-N87 cells assessed as inhibition of cell growth incubated for 24 hrs by MTT reagent based microplate reader assay; format: functional; details: NCI-N87, 24 h
[37] = Antiproliferative activity against human YCC-1 cells assessed as inhibition of cell growth incubated for 24 hrs by MTT reagent based microplate reader assay; format: functional; details: YCC-1, 24 h
[38] = Antiproliferative activity against human YCC-6 cells assessed as inhibition of cell growth incubated for 24 hrs by MTT reagent based microplate reader assay; format: functional; details: YCC-6, 24 h
[39] = Antiproliferative activity against human YCC-16 cells assessed as inhibition of cell growth incubated for 24 hrs by MTT reagent based microplate reader assay; format: functional; details: YCC-16, 24 h
[40] = system: SK-MEL-5; experiment: Antiproliferative activity against human SK-MEL-5 cells assessed as inhibition of cell growth incubated for 96 hrs by SRB assay; format: functional, cell-based; details: SK-MEL-5, 96 h
[41] = system: DBTRG-05MG; experiment: Antiproliferative activity against human DBTRG-05MG cells assessed as inhibition of cell growth incubated for 72 hrs by cell counting kit method; format: functional, cell-based; details: dbtrg-05mg

Molecule: O=C(/C=C/C=C/c1ccc2c(c1)OCO2)OC1=CC(=O)c2ccccc2C1=O
IC50 [1]: 3.84 µM
IC50 [2]: 2.24 µM

Molecule: N#Cc1ccccc1-n1cc(COc2cccc3c2C(=O)C=CC3=O)nn1
IC50 [3]: 7.94 µM
IC50 [4]: 4.67 µM

Molecule: CSc1ccc(-c2c(-c3ccc(SC)cc3)n3c4c(c(-c5ccc(SC)cc5)c3c3ccc(SC)cc23)C(=O)c2ccccc2C4=O)cc1
IC50 [5]: 2.92 µM

Molecule: O=C(NNC1=CC(=O)c2ccccc2C1=O)c1ccncc1
IC50 [6]: 20.9 µM
IC50 [7]: 28.2 µM

Molecule: C=CC(C)(C)C(OCCCCCCO)c1cc(OC)c2c(c1OC)/C(=N\O)C=C/C2=N\O (stereo unspecified)
IC50 [17]: 30.2 µM
IC50 [18]: 8.46 µM
IC50 [19]: 6.53 µM
IC50 [20]: 23.5 µM

Molecule: COc1cc(NC2=C(C(=O)c3ccccc3)C(=O)c3ccccc3C2=O)cc(OC)c1OC
IC50 [21]: 11.6 µM
IC50 [22]: 8.12 µM
IC50 [23]: 7.53 µM

Molecule: SODIUM ORTHOVANAD
IC50 [41]: 25 µM

Molecule: C=CC(C)(C)C(SC(=O)c1cc(OC)c(OC)c(OC)c1)c1cc(OC)c2c(c1OC)/C(=N\O)C=C/C2=N\O (stereo unspecified)
IC50 [17]: 3.67 µM
IC50 [20]: 4.95 µM

Now from value to molecule, other results behind:

IC50 [8]: 0.6 µM
IC50 [9]: 1.05 µM
IC50 [10]: 2.12 µM
Molecule: O=C1OCC2=C1C(c1ccc(Oc3ccc(F)cc3)cc1)C1=C(N2)C(=O)c2ccccc2C1=O (stereo unspecified)

IC50 [11]: 7.5 µM
Molecule: COC1=CC(=O)c2ccccc2C1=O [2-Methoxy-1,4-naphthoquinone]

IC50 [10]: 8.94 µM
IC50 [14]: 0.76 µM
IC50 [15]: 7.94 µM
IC50 [16]: 6.37 µM
Molecule: O=C1C2=C(C(=O)c3ccccc31)C(CCc1ccccc1)c1sc(=O)[nH]c1S2 (stereo unspecified)
IC50 [12]: 9.57 µM
IC50 [13]: 12.8 µM

IC50 [16]: 4.52 µM
IC50 [25]: 1.99 µM
IC50 [26]: 9.61 µM
IC50 [27]: 3.38 µM
IC50 [28]: 4.27 µM
IC50 [30]: 6.55 µM
Molecule: C[C@H](NC1=CC(=O)c2ccccc2C1=O)C(=O)O
IC50 [24]: 2.56 µM
IC50 [29]: 3.36 µM

IC50 [31]: 0.32 µM
IC50 [32]: 0.56 µM
IC50 [33]: 0.63 µM
Molecule: COc1ccc(SC2=CC(=O)c3c(OC)ccc(OC)c3C2=O)cc1
IC50 [34]: 1.22 µM
IC50 [35]: 0.64 µM
IC50 [36]: 0.73 µM
IC50 [37]: 0.71 µM
IC50 [38]: 0.42 µM
IC50 [39]: 1.35 µM

IC50 [40]: 0.81 µM
Molecule: C=CC/N=c1\sc2c(n1NC(=O)c1cc3ccc1CCc1ccc(cc1)CC3)C(=O)c1ccccc1C2=O

IC50 [4]: 6.15 µM
Molecule: O=C1C=C(Nc2cccc(F)c2)C(=O)c2ccccc21
